Reference: patent US20230074200A1 (priority 2021, published 2023)
Several values for one entry are separate records, joined by “and”; a condition that tells them apart may be missing. Equal entries are not always repeated. Where two headings read alike, the source gives them in different places.

What was measured:
[1] = system: rats lethally intoxicated with 2.5 LD50 BoNT/A; settings: rat, in vivo
[2] = rat, in vivo
[3] = rat, in vivo, sc, 2 mg/kg
[4] = system: isolated mouse diaphragms poisoned by multiple BoNT serotypes; settings: cited from earlier work
[5] = system: rats lethally challenged with 110 U/kg BoNT/A (2.5 LD50); settings: rat, in vivo
BoNT/A-intoxicated mice = settings: mouse, in vivo; cited from earlier work
[6] = system: diaphragm motor endplates of BoNT/A intoxicated rats; settings: rat, in vivo
[7] = rat, in vivo; for behavioral seizure (%) / gait change (%) / max Racine score / mortality (%) / salivation (%): sc
[8] = rat, in vivo; for behavioral seizure (%) / gait change (%) / max Racine score / mortality (%) / salivation (%): sc; remark: listed apart in the source

With `Nc1ccncc1N` [3,4-DAP, 3,4-diaminopyridine] the “functional toxicity or loss of efficacy throughout the infusion period” value [1] was “no evidence of functional toxicity or loss of efficacy”, the “symptomatic rebound following cessation of infusion” value [1] was “without symptomatic rebound” and the “time by which all rats were deceased following cessation of infusion” value [1] was ≤ 12 h. The “time by which toxic signs resolved” value [1] was ≤ 14 days, the “time by which toxic signs stabilized” value [1] was ≤ 2 days and the “time to worsening of toxic signs following cessation of infusion” value [1] was 3 to 6 h. For the same molecule, the “toxic signs compared to vehicle” value [1] was “improved”, the “relationship between infusion dose rate and CSS (serum)” value [2] was “linearly related to infusion dose” and the VO2 [3] was “transient increases”. The respiratory rate [3] was “transient increases”, the tidal volume [3] was “transient increases” and the muscle paralysis [4] was “reverse muscle paralysis”. For the same molecule, the “survival rate at the final injection” value [5] was 100%, the “time to reduction of toxic signs compared to vehicle” value [5] was ≤ 30 min and the “time after cessation of treatment at which toxic signs worsened” value ([5]; 2 mg/kg) was “approximately 1.5 h”. For the same molecule, the “time of death after the final injection” value ([5]; 2 mg/kg) was 2 to 4 h, the “respiratory and skeletal muscle weakness” value (BoNT/A-intoxicated mice) was “reversed respiratory and skeletal muscle weakness” and the “respiratory function and survival” value (BoNT/A-intoxicated mice) was “improve respiratory function and prolong survival”. For the same molecule, the “mean EPP success rate” value ([6]; 0.98 mg/kg) was 75.4±3.5%, the “mean EPP success rate” value ([6]; 1.44 mg/kg) was 60.5±5.3% and 79.7±2.5% and the “behavioral signs of neurological toxicity during infusion” value [7] was “not observed”. The “behavioral seizure (%)” value ([7]; 0.36 mg/kg) was 0, 0%, the “gait change (%)” value ([7]; 0.36 mg/kg) was 0% and the “max Racine score” value ([7]; 0.36 mg/kg) was 0, 0. The “mortality (%)” value ([7]; 0.36 mg/kg) was 0%, the “salivation (%)” value ([7]; 0.36 mg/kg) was 0% and the “behavioral seizure (%)” value ([7]; 0.72 mg/kg) was 0, 0%. The “gait change (%)” value ([7]; 0.72 mg/kg) was 0%, the “max Racine score” value ([7]; 0.72 mg/kg) was 0, 0 and the “mortality (%)” value ([7]; 0.72 mg/kg) was 0%. For the same molecule, the “salivation (%)” value ([7]; 0.72 mg/kg) was 0%, the “behavioral seizure (%)” value ([7]; 1.44 mg/kg) was 0, 0% and the “gait change (%)” value ([7]; 1.44 mg/kg) was 0%. For the same molecule, the “max Racine score” value ([7]; 1.44 mg/kg) was 0, 0, the “mortality (%)” value ([7]; 1.44 mg/kg) was 0% and the “salivation (%)” value ([7]; 1.44 mg/kg) was 0%. For the same molecule, the “physiological indicators of acute neurological toxicity” value ([8]; 2 mg/kg) was “did not elicit physiological indicators of acute neurological toxicity”, the “physiological indicators of acute neurological toxicity” value ([8]; 8 mg/kg) was “did not elicit physiological indicators of acute neurological toxicity” and the “behavioral seizure (%)” value ([8]; 1 mg/kg) was 0, 0%. The “gait change (%)” value ([8]; 1 mg/kg) was 0%, the “max Racine score” value ([8]; 1 mg/kg) was 0, 0 and the “mortality (%)” value ([8]; 1 mg/kg) was 0%. For the same molecule, the “salivation (%)” value ([8]; 1 mg/kg) was 0%, the “behavioral seizure (%)” value ([8]; 2 mg/kg) was 0, 0% and the “gait change (%)” value ([8]; 2 mg/kg) was 0%. For the same molecule, the “max Racine score” value ([8]; 2 mg/kg) was 0, 0, the “mortality (%)” value ([8]; 2 mg/kg) was 0% and the “salivation (%)” value ([8]; 2 mg/kg) was 0%. For the same molecule, the “behavioral seizure (%)” value ([8]; 8 mg/kg) was 0, 0%, the “gait change (%)” value ([8]; 8 mg/kg) was 0% and the “max Racine score” value ([8]; 8 mg/kg) was 0, 0. The “mortality (%)” value ([8]; 8 mg/kg) was 0%, the “salivation (%)” value ([8]; 8 mg/kg) was 0% and the “behavioral seizure (%)” value ([8]; 16 mg/kg) was 0, 0%. The “gait change (%)” value ([8]; 16 mg/kg) was 50%, the “max Racine score” value ([8]; 16 mg/kg) was 0, 0 and the “mortality (%)” value ([8]; 16 mg/kg) was 0%. For the same molecule, the “salivation (%)” value ([8]; 16 mg/kg) was 25%.
